According to patent US9969762B2:
Converted amounts (≈) assume the structure as drawn. Like-named read-outs stand apart in the source and are kept apart here.

What was measured:
Fusarium roseum = settings: for Inhibition of the growth of the Fusarium roseum fungi: compound in methanol, more than 10 days at 20° C.; for Inhibition of the growth of the fungi: compound in DMSO, 10 days at 20° C.
Procedure: (§1) The antifungal activity of the N-alkyl-glycosyl(di)amine derivatives of formula (I) and of the N-alkyl-glycamine derivatives of formula (III) synthesized according to the process of the invention was evaluated on two fungi: Fusarium roseum and Fusarium sambucinum.
(§2) For this, 500 μl of solution comprising the test derivative, dissolved in DMSO or methanol, are mixed with 19.5 ml of malt agar medium (Sigma aldrich) allowing the growth of these two Fusarium isolates. The test derivative is prepared in 2 ml of methanol, then mixed with 18 ml of malt agar medium (Sigma aldrich). A spot of 10 μl of culture of each Fusarium is then deposited at the center of each Petri dish. After 10 days of incubation at 20° C., the growth diameters are measured.
(§3) The range of concentrations of N-alkyl-glycosyl(di)amine derivatives of formula (I) tested ranges from 0.1 to 25 μmol/ml.
(§4) The Fusarium growth on media containing the various molecules is compared with that obtained only with DMSO or methanol.
(§5) The same antifungal evaluation protocol as the one previously described with the compound Ij was applied for other N-alkyl-glycosyl(di)amine derivatives of formula (I) and N-alkyl-glycamine derivatives of formula (III) at concentrations ranging from 1 to 20 μmol/ml.
(§6) 2 ml of solution comprising the test compound dissolved in methanol are mixed with 18 ml of agar malt medium (Sigma aldrich) allowing the growth of these two Fusarium isolates. A spot of 10 μl of culture of each Fusarium is then deposited at the center of each Petri dish. After more than 10 days of incubation at 20° C., the growth diameters are measured.

Dickeya dianthicola = experiment: Antibacterial activity (MIC and MBC) in TY medium; assay type: cell-based; settings: for MBC: plated on TY agar
[1] = tested on: Pectobacterium atrosepticum; experiment: Antibacterial activity (MIC and MBC) in TY medium; assay type: cell-based; settings: for MBC: plated on TY agar
[2] = tested on: Agrobacterium tumefaciens; experiment: Antibacterial activity (MIC and MBC) in TY medium; assay type: cell-based; settings: for MBC: plated on TY agar
Fusarium sambucinum = settings: for Inhibition of the growth of the Fusarium sambucinum fungi: compound in methanol, more than 10 days at 20° C.; for Inhibition of the growth of the fungi: compound in DMSO, 10 days at 20° C.
Procedure: as §1, §2, §3, §4, §5, §6

[3] = tested on: Agrobacterium tumefaciens, Pectobacterium atrosepticum and Dickeya dianthicola bacteria; experiment: Antibacterial activity, summary statements over the bacteria tested; assay type: cell-based; settings: for inhibition of the growth of the bacteria (in words): after 36 h of incubation at 30° C., compared with 4-NPO
Phytophthora infestans = experiment: microbe, parasite or virus in culture; assay type: cell-based; settings: for Average diameters of inhibition zone: after 6 days, 20 mg in 200 μl distilled water, spots of 10 μl
[4] = Dickeya dianthicola, 36 h of culture at 30° C., TY medium, read-out: MIC
[5] = Dickeya dianthicola, 36 h of culture at 30° C., read-out: MBC
[6] = 36 h of culture at 30° C., TY medium

Row | Compound | Inhibition of the growth of the Fusarium roseum fungi (Fusarium roseum; 1 μmol/ml) | Inhibition of the growth of the Fusarium roseum fungi (Fusarium roseum; 2.5 μmol/ml) | Inhibition of the growth of the Fusarium roseum fungi (Fusarium roseum; 5 μmol/ml) | MIC [1, 6] | MBC ([1]; 36 h of culture at 30° C.) | MIC [2, 6] | MBC ([2]; 36 h of culture at 30° C.) | Inhibition of the growth of the Fusarium sambucinum fungi (Fusarium sambucinum; 1 μmol/ml) | Inhibition of the growth of the Fusarium sambucinum fungi (Fusarium sambucinum; 2.5 μmol/ml) | Inhibition of the growth of the Fusarium sambucinum fungi (Fusarium sambucinum; 5 μmol/ml) | bactericidal activity (in words) [3] | inhibition of the growth of the bacteria (in words) [3] | Average diameters of inhibition zone (Phytophthora infestans) | MIC (Dickeya dianthicola; [6]) | MBC (Dickeya dianthicola; 36 h of culture at 30° C.) | further results
1 | CCCCCNC1OC(C)[C@H](O)C(O)C1O (stereo partly drawn) [compound Ie] | 94% | 96% | 100% | 16 µg/mL (≈ 68.6 µM) | 16 µg/mL (≈ 68.6 µM) | 4 µg/mL (≈ 17.1 µM) | 8 µg/mL (≈ 34.3 µM) | 95% | 96% | 100% | showed a bactericidal activity | inhibition of the growth of the bacteria was observed | – | – | – | Inhibition of the growth of the Fusarium roseum fungi (Fusarium roseum; 10 μmol/ml): 100%; Inhibition of the growth of the Fusarium roseum fungi (Fusarium roseum; 20 μmol/ml): 100%; MIC (Dickeya dianthicola; [4]): 16 µg/mL (≈ 68.6 µM); MBC (Dickeya dianthicola; [5]): 16 µg/mL (≈ 68.6 µM); Inhibition of the growth of the Fusarium sambucinum fungi (Fusarium sambucinum; 10 μmol/ml): 100%; Inhibition of the growth of the Fusarium sambucinum fungi (Fusarium sambucinum; 20 μmol/ml): 100%; zone of inhibition at 20000 µg/disc (Phytophthora infestans; Phytophthora infestans, 144 h, read-out: Average diameters of inhibition zone): 21 mm
2 | CCCCCCCCCCCCNC1OC(CO)C(O)C(O)C1O (stereo not drawn) [compound Ij] | – | – | – | 16 µg/mL (≈ 46 µM) | – | 8 µg/mL (≈ 23 µM) | 16 µg/mL (≈ 46 µM) | – | – | – | showed a bactericidal activity | inhibition of the growth of the bacteria was observed | 24 mm | – | – | Inhibition of the growth of the fungi (Fusarium roseum; 1 μmol/ml): 100%; Inhibition of the growth of the fungi (Fusarium roseum; 2.5 μmol/ml): 100%; Inhibition of the growth of the fungi (Fusarium roseum; 5 μmol/ml): 100%; Inhibition of the growth of the fungi (Fusarium roseum; 10 μmol/ml): 100%; Inhibition of the growth of the fungi (Fusarium roseum; 20 μmol/ml): 100%; Inhibition of the growth of the fungi (Fusarium roseum; 25 μmol/ml): 100%; Inhibition of the growth of the fungi (Fusarium sambucinum; 1 μmol/ml): 50%; Inhibition of the growth of the fungi (Fusarium sambucinum; 2.5 μmol/ml): 50%; Inhibition of the growth of the fungi (Fusarium sambucinum; 5 μmol/ml): 100%; Inhibition of the growth of the fungi (Fusarium sambucinum; 10 μmol/ml): 100%; Inhibition of the growth of the fungi (Fusarium sambucinum; 20 μmol/ml): 100%; Inhibition of the growth of the fungi (Fusarium sambucinum; 25 μmol/ml): 100%
3 | CCCCCCCCCCCCNCC(O)C(O)C(O)C(O)CO (stereo not drawn) [compound IIIb] | 100% | 100% | 100% | 32 µg/mL (≈ 91.6 µM) | 32 µg/mL (≈ 91.6 µM) | 16 µg/mL (≈ 45.8 µM) | 32 µg/mL (≈ 91.6 µM) | 96% | 96% | 100% | showed a bactericidal activity | inhibition of the growth of the bacteria was observed | 20 mm | 62.5 µg/mL (≈ 179 µM) | 62.5 µg/mL (≈ 179 µM) | –
4 | CC1OC(NCCCCCNC2OC(C)[C@H](O)C(O)C2O)C(O)C(O)[C@H]1O (stereo partly drawn) [compound Ih] | 0% | 28% | 90% | 62.5 µg/mL (≈ 158 µM) | 125 µg/mL (≈ 317 µM) | 62.5 µg/mL (≈ 158 µM) | 500 µg/mL (≈ 1270 µM) | 12% | 27% | 100% | showed a bactericidal activity | inhibition of the growth of the bacteria was observed | – | – | – | Inhibition of the growth of the Fusarium roseum fungi (Fusarium roseum; 10 μmol/ml): 93%; Inhibition of the growth of the Fusarium roseum fungi (Fusarium roseum; 20 μmol/ml): 93%; Inhibition of the growth of the Fusarium sambucinum fungi (Fusarium sambucinum; 10 μmol/ml): 100%; Inhibition of the growth of the Fusarium sambucinum fungi (Fusarium sambucinum; 20 μmol/ml): 100%
5 | CCCCCCCCCCCCNCC(O)C(O)C(O)C(C)O (stereo not drawn) [compound IIIa] | 100% | 100% | 100% | 32 µg/mL (≈ 95.9 µM) | 32 µg/mL (≈ 95.9 µM) | 16 µg/mL (≈ 48 µM) | 62.5 µg/mL (≈ 187 µM) | 100% | 100% | 100% | showed a bactericidal activity | inhibition of the growth of the bacteria was observed | 24 mm | 62.5 µg/mL (≈ 187 µM) | 62.5 µg/mL (≈ 187 µM) | –
6 | CC(O)C(O)C(O)C(O)CNCCCCCCCCCCCCN (stereo not drawn) [compound IIId] | – | – | – | 62.5 µg/mL (≈ 179 µM) | 62.5 µg/mL (≈ 179 µM) | 52.5 µg/mL (≈ 151 µM) | 250 µg/mL (≈ 717 µM) | – | – | – | showed a bactericidal activity | inhibition of the growth of the bacteria was observed | 0 mm | 16 µg/mL (≈ 45.9 µM) | 125 µg/mL (≈ 359 µM) | –
7 | CCCCCCCCCCCCNC1OC(CO)C(O)C(O)C1O (stereo not drawn) [compound Ik] | 96% | 96% | 96% | 16 µg/mL (≈ 46 µM) | 32 µg/mL (≈ 92.1 µM) | 2 µg/mL (≈ 5.76 µM) | – | 96% | 96% | 96% | showed a bactericidal activity | inhibition of the growth of the bacteria was observed | 24 mm | – | – | –
8 | CCCCCCCCCCCCNCC(O)C(O)C(O)C(O)CO (stereo not drawn) [compound IIIc] | 100% | 100% | 100% | 62.5 µg/mL (≈ 179 µM) | 62.5 µg/mL (≈ 179 µM) | >500 µg/mL | >500 µg/mL | 98% | 100% | 100% | showed a bactericidal activity | inhibition of the growth of the bacteria was observed | 18 mm | >500 µg/mL | >500 µg/mL | –
9 | O=[N+]([O-])c1cc[n+]([O-])cc1 [4-NPO, 4-Nitropyridine-N-oxide, reference compound] | – | – | – | – | – | – | – | – | – | – | – | – | – | – | – | MIC (Dickeya dianthicola; [4]): 16 µg/mL (≈ 114 µM); MBC (Dickeya dianthicola; [5]): 16 µg/mL (≈ 114 µM); MIC (Dickeya dianthicola; Dickeya dianthicola, reference bacteriostatic molecule, read-out: MIC): 16 µg/mL (≈ 114 µM); MIC ([1]; Pectobacterium atrosepticum, 36 h, 36 h of culture at 30° C., TY medium, read-out: MIC): 125 µg/mL (≈ 892 µM); MIC ([1]; Pectobacterium atrosepticum, reference bacteriostatic molecule, read-out: MIC): 125 µg/mL (≈ 892 µM); MIC ([2]; Agrobacterium tumefaciens, 36 h, 36 h of culture at 30° C., TY medium, read-out: MIC): 125 µg/mL (≈ 892 µM); MIC ([2]; Agrobacterium tumefaciens, reference bacteriostatic molecule, read-out: MIC): 125 µg/mL (≈ 892 µM)
